The source of these data is ChEMBL document CHEMBL6153030, “Design, synthesis, and biological evaluation of novel pleuromutilin derivatives with methicillin-resistant Staphylococcus aureus -targeting phenol linker groups” (Eur J Med Chem, 2025).

The target of data set [1] is T1, 70S ribosome (Staphylococcus aureus) (UniProt Q2FW31+P0A0H0+Q2FW30+Q2FW19+Q2FYU5+Q2G2Q1+Q2FZ45+Q2FW15+Q2G111+Q2FW10+Q2FXY6+Q2FXZ7+Q2FZ25+Q2FW12+Q2FXK6+Q2FW23+Q2G113+P48940+Q2FW20+Q2FW39+Q2FYF9+Q2G0N9+P0A0F4+Q2FW38+Q2FW16+P0A0F8+Q2FW13+Q2FW33+Q2FW22+Q2FZ42+Q2G0P0+Q2FXQ1+Q2FXS8+Q2FW11+Q2FW08+Q2FW17+Q2FXT0+Q2FZ60+Q2FW14+P60430+P0A0G2+Q2FWD8+Q2FZF1+Q2FYU6+Q2FY22+Q2FUQ0+Q2FXQ0+Q2FW29+Q2FW06+Q2FW07+Q2FW18+Q2FW21+P48860+Q2G2T3). Put plainly: Inhibition of ribosomal peptidyl transferase centre in methicillin-resistant Staphylococcus aureus ATCC43300 assessed as bacterial cell rupture at 4XMIC by scanning electron microscopy. Format: functional.

The subject of data set [2] is Staphylococcus aureus. In words: In vivo antibacterial activity against methicillin-resistant Staphylococcus aureus ATCC43300 infected in Kunming mouse assessed as log reduction of bacterial load in lungs at 40 mg/kg, ip administered at 1 hr post-infection and measured within 48 hrs. Format: functional.
Data set [3] concerns Staphylococcus aureus. In words: Antibacterial activity against methicillin-resistant Staphylococcus aureus ATCC43300 assessed as inhibition of bacterial growth incubated for 96 hrs by broth microdilution method. The format is functional. (Dilution methods test growth across graded concentrations, often in twofold steps.)
For another data set, the system named is Escherichia coli. Put plainly: Antibacterial activity against Escherichia coli ATCC 25922 assessed as inhibition of bacterial growth incubated for 96 hrs by broth microdilution method. Format: functional.
Data set [4] has as its target T1, 70S ribosome (Staphylococcus aureus). Put plainly: Inhibition of ribosomal peptidyl transferase centre in methicillin-resistant Staphylococcus aureus ATCC43300 assessed as inhibition of bacterial cell division at 4XMIC by scanning electron microscopy. The format is functional.
Data set [5] relates to Staphylococcus aureus. In words: In vivo antibacterial activity against methicillin-resistant Staphylococcus aureus ATCC43300 infected in Kunming mouse assessed as increase in animal survival rate administered ip at 1 hr post-infection. The format is functional. To be noted: ATCC43300, 1 h.
A further data set deals with Streptococcus pneumoniae. In words: Antibacterial activity against Streptococcus pneumoniae ATCC 49619 assessed as inhibition of bacterial growth incubated for 96 hrs by broth microdilution method. Format: functional.
In data set [6] the test system is Staphylococcus aureus. In words: Antibacterial activity against methicillin-resistant Staphylococcus aureus ATCC43300 assessed as inhibition of bacterial growth measured after 17 to 18 days. To be noted: time 17-18 day. Format: functional.
Data set [7] concerns Staphylococcus aureus. In words: Bactericidal activity against methicillin-resistant Staphylococcus aureus ATCC43300 assessed as bacterial killing at 3XMIC incubated for 96 hrs in broth followed by culturing on agar plate for 4 hrs by time-kill kinetics analysis. To be noted: time 100 hrs. Format: functional.
A short description of data set [8]: Toxicity against rabbit red blood cells assessed as hemolysis rate at 100 ug/ml by absorbance based analysis. Format: cell-based, Oryctolagus cuniculus, Erythrocyte. To be noted: at 100 µg/mL, read-out: Activity.
Data set [9] concerns Staphylococcus aureus. Put plainly: Antibacterial activity against Staphylococcus aureus ATCC 29213 assessed as inhibition of bacterial growth incubated for 96 hrs by broth microdilution method. Format: functional.
The nature of data set [10]: Toxicity against zebrafish embryo assessed as teratogenic effect at 128 ug/ml measured after 96 hrs by microscopic analysis. Also noted: species or system Danio rerio. The settings on record: in vivo, dose 128 µg/ml.
Data set [11] deals with Staphylococcus aureus. Put plainly: Bactericidal activity against methicillin-resistant Staphylococcus aureus ATCC 43300 assessed as bacterial killing at 6XMIC incubated for 96 hrs in broth followed by culturing on agar plate for 12 hrs by time-kill kinetics analysis. Format: functional. The settings on record: time 108 hrs.
Another data set deals with HepG2. In words: Cytotoxicity against human HepG2 cells assessed as reduction in cell survival at 250 ug/ml incubated for 6 hrs by CCK8 assay. To be noted: hepg2, 6 h, dose 250 µg/ml. The format is toxicity, cell-based.
The subject of data set [12] is Staphylococcus aureus. In words: In vivo antibacterial activity against methicillin-resistant Staphylococcus aureus ATCC43300 infected in Kunming mouse assessed as decrease in bacterial load in lungs at 20 to 40 mg/kg, ip administered at 1 hr post-infection. The settings on record: dose 20-40 mg/kg. Format: functional, organism-based.
Data set [13] can be described thus: Toxicity against Zebrafish assessed as reduction of survival of embryos measured after 96 hrs. Also noted: species or system Danio rerio. To be noted: in vivo.
The test system of data set [14] is Staphylococcus aureus. Put plainly: In vivo antibacterial activity against methicillin-resistant Staphylococcus aureus ATCC43300 infected in Kunming mouse assessed as decrease in lung lesions by measuring reduced congestion, hemorrhage and inflammatory cell infiltration at 40 mg/kg, ip administered at 1 hr post-infection. Format: functional, organism-based.
A further data set deals with HEK293. Put plainly: Cytotoxicity against HEK293 cells assessed as reduction in cell survival upto 120 ug/ml incubated for 6 hrs by CCK8 assay. The format is toxicity, cell-based. To be noted: human, hek293, 6 h, dose < 120 µg/ml.
Data set [15] deals with Staphylococcus aureus. In words: Bactericidal activity against methicillin-resistant Staphylococcus aureus ATCC 43300 assessed as log reduction of bacterial colonies at 3XMIC incubated for 96 hrs in broth followed by culturing on agar plate for 4 hrs by time-kill kinetics analysis. Format: functional. The settings on record: time 100 hrs.
The subject of data set [16] is Staphylococcus epidermidis. Put plainly: Antibacterial activity against methicillin-resistant Staphylococcus epidermidis ATCC 51625 assessed as inhibition of bacterial growth incubated for 96 hrs by broth microdilution method. Format: functional.
In data set [17] the target is T1, 70S ribosome (Staphylococcus aureus). In words: Inhibition of ribosomal peptidyl transferase centre in methicillin-resistant Staphylococcus aureus ATCC43300 assessed as bacterial cell membrane damage at 4XMIC by scanning electron microscopy. The format is functional.
Data set [18] deals with Staphylococcus aureus. In words: Antibacterial activity against methicillin-resistant Staphylococcus aureus ATCC43300 assessed as inhibition of bacterial growth measured after 21 days. Format: functional. The settings on record: ATCC43300, 504 h, time 21 day.
In data set [19] the test system is Staphylococcus aureus. Put plainly: Antibacterial activity against methicillin-resistant Staphylococcus aureus ATCC43300 assessed as inhibition of bacterial growth measured on day 8. Format: functional. The settings on record: ATCC43300, 192 h, time 8 day.
Data set [20] concerns Staphylococcus aureus. In words: Antibacterial activity against methicillin-resistant Staphylococcus aureus ATCC43300 assessed as inhibition of bacterial growth measured on day 20. Format: functional. To be noted: ATCC43300, 480 h, time 20 day.

Converted amounts (≈) assume the structure as drawn. The source made the active and inactive calls. No cut-off for these calls is given here.

For `C=C[C@]1(C)C[C@@H](OC(=O)CSc2ccccc2OCC(=O)N2CCS(=O)(=O)CC2)[C@]2(C)[C@H](C)CC[C@]3(CCC(=O)[C@H]32)[C@@H](C)[C@@H]1O`, the inhibition result in [1] and in [4] was “Active” each time. Further, the Activity with Staphylococcus aureus [2] was 3 log10CFU/ml; in the data set with Staphylococcus aureus [7], 99.9%; in data set [10], “Non-toxic”; with Staphylococcus aureus [11], 99.99%; with HepG2, “Toxic”; in the data set with Staphylococcus aureus [12], “Dose-dependent-effect”. The Activity result in the data set on HEK293 is “Toxic”; in the data set on Staphylococcus aureus [15] it was -3.154 log10CFU/ml. Moreover, the MIC (as a rule, the lowest concentration found to suppress growth) in the data set with Staphylococcus aureus [3] was below 0.031 µg/mL; in the data set on Escherichia coli it was above 64 µg/mL; with Streptococcus pneumoniae it was 0.125 µg/mL (≈ 0.189 µM); with Staphylococcus aureus [6] it was 8 µg/mL (≈ 12.1 µM); in the data set with Staphylococcus aureus [9] it was below 0.031 µg/mL; in data set [16], below 0.031 µg/mL. Also, the ED50 (as a rule, the dose at which the effect has come halfway, by size or by number of responders) in the data set on Staphylococcus aureus [5] is 6.48 mg/kg. The hemolysis at 100 ug/ml in data set [8] is below 15%. Also, the median lethal concentration (LC50) (in general, the concentration lethal to half of the exposed cells or organisms) at 96 h in data set [13] was determined as 165 µg/mL (≈ 249 µM). In the data set with Staphylococcus aureus [14], the outcome was Active.

Regarding `C=C[C@]1(C)C[C@@H](OC(=O)CSc2cccc(OCC(=O)N3CCS(=O)(=O)CC3)c2)[C@]2(C)[C@H](C)CC[C@]3(CCC(=O)[C@H]32)[C@@H](C)[C@@H]1O`, the MIC with Staphylococcus aureus [3] was below 0.031 µg/mL; in the data set on Escherichia coli, above 64 µg/mL; in the data set on Streptococcus pneumoniae, 0.125 µg/mL (≈ 0.189 µM); in the data set with Staphylococcus aureus [9] it was below 0.031 µg/mL; in the data set with Staphylococcus aureus [18], 4 µg/mL (≈ 6.04 µM); in [16] it was below 0.031 µg/mL. In addition, the inhibition entry in data set [4] and in data set [17] was “Active” in each case. For the same compound, the Activity entry in [10] is “Non-toxic”; in the data set with Staphylococcus aureus [11] it was 99.99%; in the data set with HepG2, “Toxic”; with HEK293, “Toxic”. In data set [13], the LC50 at 96 h was determined as 149 µg/mL (≈ 225 µM).

Consider `C=C[C@]1(C)C[C@@H](OC(=O)CSCCN(CC)CC)[C@]2(C)[C@H](C)CC[C@]3(CCC(=O)[C@H]32)[C@@H](C)[C@@H]1O` [TIAMULIN], for which the MIC in the data set on Staphylococcus aureus [3] is 0.5 µg/mL (≈ 1.01 µM); in the data set with Escherichia coli it was above 64 µg/mL; in the data set with Staphylococcus aureus [19], 8 µg/mL (≈ 16.2 µM); with Streptococcus pneumoniae it was 0.5 µg/mL (≈ 1.01 µM); in the data set on Staphylococcus aureus [20] it was 32 µg/mL (≈ 64.8 µM); with Staphylococcus aureus [9], 0.5 µg/mL (≈ 1.01 µM). Also, in data set [16], the minimal inhibitory concentration (MIC) turned out to be 0.25 µg/mL (≈ 0.506 µM). Moreover, the median effective dose (ED50) with Staphylococcus aureus [5] was determined as 11.4 mg/kg. The Activity result in the data set with HepG2 and in the data set on HEK293 was “Toxic” throughout. Moreover, the LC50 at 96 h in data set [13] amounted to 24 µg/mL (≈ 48.6 µM).
